Reference: patent US20180071317A1, “USE OF AGENTS THAT ALTER THE PERITUMORAL ENVIRONMENT FOR THE TREATMENT OF CANCER” (SERVICIO ANDALUZ DE SALUD, priority 2011, published 2018)

Key:
[1] = test system: fibroblasts (PHF) co-cultivated with tumor cell carcinoma of urinary bladder (5637); assay: Marker expression (IHC) in PHF co-cultured with 5637 tumor cells; format: cell-based, human; details: co-culture with 5637; SP 1 μM; 48 h
Experimental: (§1) All cultures were maintained 48 hours, following which the same cells were included in paraffin blocks for subsequent analysis of the expression of different markers by immunohistochemistry (see Example 1). […] All experiments were carried out sixfold. Analyzed markers in fibroblast cells (stromal cells) were: TGF-α, TGF-β1, TGF-β2, TGF-β3, SPARC, MMP-3, MMP-7, MMP-9, MMP-11, MMP-13 and MMP-14.

[2] = test system: fibroblasts (PHF) co-cultured with tumor cells in human prostate carcinoma (22Rv1); assay: Marker expression (IHC) in PHF co-cultured with 22Rv1 tumor cells; format: cell-based; details: co-culture with 22Rv1; SP 1 μM; 48 h;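 further: cultures grown on fresh plasma from a healthy donor, each experiment run sixfold, values give the percentage of fibroblasts positive for the given marker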
Experimental: as §1

[3] = test system: fibroblasts (PHF) co-cultured with human neuroblastoma tumor cells (KELLY); assay: Marker expression (IHC) in PHF co-cultured with KELLY tumor cells; format: cell-based; details: PHF co-cultured with KELLY + SP;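 further: Co-cultures grown on healthy-donor human blood plasma, run in six replicates, value is percentage of fibroblasts positive for each marker, compared with fibroblasts cultured alone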
Experimental: as §1

[4] = test system: fibroblasts (PHF) co-cultured with tumor cells of human breast carcinoma (MCF-7); assay: Marker expression (IHC) in PHF co-cultured with MCF-7 tumor cells; format: cell-based; details: co-culture with MCF-7; SP 1 μM; 48 h;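 further: value is the percentage of fibroblasts positive for each marker, with fibroblasts cultured alone as reference, grown in fresh plasma from a healthy donor, six replicates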
Experimental: as §1

mononuclear cells = assay: Marker expression (immunohistochemistry) in mononuclear blood cells with SP alone or with NK1 antagonists; format: cell-based, human; details: SP 1 μM; 48 h
Text: Briefly, heparinized blood from healthy donors was centrifuged so as to separate the various components thereof. Red blood cells remained at the bottom of the tube. Above them was a small white layer composed of the white blood cells and above, on top of the tube, the blood plasma. The layer of white cells was distributed in a culture plate of 24 wells by adding in each the same concentration of blood plasma from the same donor, supplemented with 1% antibiotic-antimycotic (Invitrogen). In each well, approximately 1000 cells (PHF) skin from the dermis were further added, obtained as previously described in Example 2. […] After 48 hours of incubation, cells were collected and embedded in paraffin for expression analysis by immunohistochemical techniques (as described in Example 1).
The expression of TGF molecular markers (anti-TGF 2, SAB4502956) and NF-kB (anti-NF-kB, SAB4501992) using specific antibodies against them were analyzed. All antibodies used were rabbit polyclonal antibodies obtained from Sigma Aldrich and were used at a concentration of 1/1000. All experiments were carried out sixfold.

[5] = test system: human primary fibroblasts (PHF); assay: Marker expression (immunohistochemistry) in human primary fibroblasts with SP alone or with NK1 antagonists; format: cell-based; details: SP 1 μM; 48 h;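 further: primary human dermal fibroblasts, immunostained with rabbit polyclonal antibodies against each marker, value is percentage of stained cells among all cells counted in 20 fields at 400× per section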
Experimental: These PHF were obtained and purified from samples obtained from the dermis of the skin of healthy volunteers as described in De Bari et al (De Bari et al. 2001). Briefly, small pieces of skin dermis were digested in a solution of hyaluronidase (Sigma-Aldrich, USA) at a concentration of 1 mg/ml for 15 minutes at 37° C. and then treated with 6 mg/ml collagenase type IV (Invitrogen) for 2 hours at 37° C. Then, the cells were washed, resuspended in DMEM culture medium with high glucose (Dulbecco's Modified Eagle's Medium, Invitrogen) supplemented with 1% antibiotic-antimycotic (Invitrogen) and 1% pyruvate Sodium (Invitrogen), and seeded in culture dishes at a concentration of 10,000 cells per square centimeter. When the cells reached confluence, adherent cells were detached using 0.5% sterile trypsin (Invitrogen) and used between passages 3 and 9. For tests shown below, the PHF were plated in 24-well plates at a concentration of 25,000 cells per well.
After 48 hours of culture, cells were harvested and paraffin cell-blocks for immunohistochemical analysis were constructed, as previously explained in Example 1.
In immunohistochemical assays the expression of the following markers were studied: TGFα (SAB4502953), TGF1 (SAB4502954), TGFβ2 (SAB4502956), TGFβ3 (SAB4502957), SPARC (HPA002989), MMP-3 (HPA007875) MMP-7 (SAB4501894), MMP-9 (SAB4501896), MMP-11 (SAB4501898), MMP-13 (SAB4501900) and MMP-14 (SAB4501901) using specific antibodies against them. All antibodies used were rabbit polyclonal antibodies obtained from Sigma-Aldrich and were used at a concentration of 1/1000. All experiments were carried out sixfold.
On each of the six sections cell counts were performed in 20 high power fields (400×) through an Olympus microscope (model CX31) to assess the immunostaining. On each of the fields total cell number and number of cells displaying immunostaining were counted, being then the percentage of cells displaying said immunostaining.

[6] = test system: fibroblasts (PHF) co-cultured with human choriocarcinoma tumor cells (AC-1M32); assay: Marker expression (IHC) in PHF co-cultured with AC-1M32 tumor cells; format: cell-based; details: co-culture with AC-1M32; SP 1 μM; 48 h;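 further: Read-out is the percentage of PHF fibroblasts positive for each marker, with cells grown in fresh healthy-donor blood plasma, six replicates, reference being fibroblasts cultured alone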
Experimental: as §1

`CSCC[C@H](NC(=O)[C@H](CC(C)C)NC(=O)CNC(=O)[C@H](Cc1ccccc1)NC(=O)[C@H](Cc1ccccc1)NC(=O)[C@H](CCC(N)=O)NC(=O)[C@H](CCC(N)=O)NC(=O)[C@@H]1CCCN1C(=O)[C@H](CCCCN)NC(=O)[C@@H]1CCCN1C(=O)[C@@H](N)CCCNC(=N)N)C(N)=O` [SP] was tested, and the “PHF cells expressing MMP-3” value [1] was 44.5 ± 2.7%, the “PHF cells expressing MMP-7” value [1] was 55.4 ± 3.8% and the “PHF cells expressing MMP-9” value [1] was 53.3 ± 4.4%. For the same compound, the “PHF cells expressing MMP-11” value [1] was 26.5 ± 1.8%, the “PHF cells expressing MMP-13” value [1] was 44.5 ± 2.5% and the “PHF cells expressing MMP-14” value [1] was 47.1 ± 3.5%. The “PHF cells expressing SPARC” value [1] was 47.4 ± 2.2%, the “PHF cells expressing TGF-α” value [1] was 42.4 ± 1.1% and the “PHF cells expressing TGF-β1” value [1] was 43.6 ± 1.1%. For the same compound, the “PHF cells expressing TGF-β2” value [1] was 44.3 ± 1.1%, the “PHF cells expressing TGF-β3” value [1] was 42.3 ± 1.2% and the “PHF cells expressing MMP-3” value [2] was 43.3 ± 2.7%. For the same compound, the “PHF cells expressing MMP-7” value [2] was 54.3 ± 4.8%, the “PHF cells expressing MMP-9” value [2] was 51.4 ± 2.4% and the “PHF cells expressing MMP-11” value [2] was 28.5 ± 3.8%. For the same compound, the “PHF cells expressing MMP-13” value [2] was 46 ± 2.5%, the “PHF cells expressing MMP-14” value [2] was 49 ± 3.5% and the “PHF cells expressing SPARC” value [2] was 48.1 ± 3.2%. For the same compound, the “PHF cells expressing TGF-α” value [2] was 41.4 ± 2.1%, the “PHF cells expressing TGF-β1” value [2] was 34.5 ± 3.1% and the “PHF cells expressing TGF-β2” value [2] was 42.5 ± 2.1%. For the same compound, the “PHF cells expressing TGF-β3” value [2] was 4.11 ± 3.6%, the “cells expressing MMP-3” value [3] was 45.4 ± 4.7% and the “cells expressing MMP-7” value [3] was 57.4 ± 3.8%. The “cells expressing MMP-9” value [3] was 51.2 ± 2.4%, the “cells expressing MMP-11” value [3] was 29.4 ± 4.8% and the “cells expressing MMP-13” value [3] was 44.3 ± 4.5%. For the same compound, the “cells expressing MMP-14” value [3] was 51.2 ± 4.2%, the “cells expressing SPARC” value [3] was 46.5 ± 4.2% and the “cells expressing TGF-α” value [3] was 42.4 ± 3.1%. For the same compound, the “cells expressing TGF-β1” value [3] was 36.5 ± 2.1%, the “cells expressing TGF-β2” value [3] was 42.2 ± 2.2% and the “cells expressing TGF-β3” value [3] was 43.4 ± 2.3%. The “PHF cells expressing MMP-3” value [4] was 44.5 ± 1.8%, the “PHF cells expressing MMP-7” value [4] was 57.1 ± 2.7% and the “PHF cells expressing MMP-9” value [4] was 55.3 ± 1.7%. The “PHF cells expressing MMP-11” value [4] was 25.4 ± 2.7%, the “PHF cells expressing MMP-13” value [4] was 46 ± 3.6% and the “PHF cells expressing MMP-14” value [4] was 48.2 ± 3.5%. For the same compound, the “PHF cells expressing SPARC” value [4] was 49 ± 1.5%, the “PHF cells expressing TGF-α” value [4] was 42.6 ± 1.1% and the “PHF cells expressing TGF-β1” value [4] was 43.2 ± 1%. For the same compound, the “PHF cells expressing TGF-β2” value [4] was 42.6 ± 2.1%, the “PHF cells expressing TGF-β3” value [4] was 46 ± 1.7% and the “mononuclear cells expressing NF-kB” value (mononuclear cells) was 25.7 ± 1.4%. For the same compound, the “mononuclear cells expressing TGF-β” value (mononuclear cells) was 16.4 ± 1.2%, the “PHF cells expressing MMP-3” value [5] was 33.9 ± 2.2% and the “PHF cells expressing MMP-7” value [5] was 46.2 ± 2.3%. For the same compound, the “PHF cells expressing MMP-9” value [5] was 35.5 ± 2.5%, the “PHF cells expressing MMP-11” value [5] was 7.8 ± 2.9% and the “PHF cells expressing MMP-13” value [5] was 17.1 ± 2.6%. The “PHF cells expressing MMP-14” value [5] was 47.3 ± 2.5%, the “PHF cells expressing SPARC” value [5] was 16 ± 1.9% and the “PHF cells expressing TGFα” value [5] was 16.5 ± 1.2%. For the same compound, the “PHF cells expressing TGFβ 1” value [5] was 18.4 ± 1.3%, the “PHF cells expressing TGFβ 2” value [5] was 24.6 ± 1.4% and the “PHF cells expressing TGFβ 3” value [5] was 23.1 ± 1.7%. The “PHF cells expressing MMP-3” value [6] was 45.4 ± 2.7%, the “PHF cells expressing MMP-7” value [6] was 57.1 ± 3.8% and the “PHF cells expressing MMP-9” value [6] was 56.3 ± 2.4%. For the same compound, the “PHF cells expressing MMP-11” value [6] was 28.4 ± 2.8%, the “PHF cells expressing MMP-13” value [6] was 47 ± 3.7% and the “PHF cells expressing MMP-14” value [6] was 51.2 ± 4.5%. The “PHF cells expressing SPARC” value [6] was 46 ± 3.1%, the “PHF cells expressing TGF-α” value [6] was 41.4 ± 1.1% and the “PHF cells expressing TGF-β1” value [6] was 36.5 ± 2.1%. The “PHF cells expressing TGF-β2” value [6] was 53.5 ± 3.1% and the “PHF cells expressing TGF-β3” value [6] was 46 ± 3%.
